“Also recorded” adds a separate entry of the source. Where no end group is shown, it is not given here.
What was measured:
[1] = test system: A549 (human lung cancer cell); assay: MTT proliferation assay, A549; type: cell-based; conditions: 100 μM, MTT after 2 days
Method: (§1) Cell culture conditions The isolation and culture of primary mouse aortic VSMC have was performed according to methods previously described (Afroze T, Yang L L, Wang C, Gros R, Kalair W, Hogue A N, Mungrue I N, Zhu Z, Husain M. Calcineurin-independent regulation of plasma membrane Ca2+ ATPase-4 in the vascular smooth muscle cell cycle. Am J Physiol Cell Physiol. July 2003; 285(1):C88-95). VSMCs were grown in DMEM (GIBCO/BRL, Gaithersburg, Md.) supplemented with 10% FBS (Hyclone, Logan, Utah), 50 ng/mL platelet-derived growth factor (PDGF, Sigma) and 1% penicillin-streptomycin (GIBCO/BRL). For serum starvation, cells were grown to 60% to 70% confluence, washed twice with PBS, and cultured in starvation medium (0.25% FBS-supplemented DMEM) for 72 hours to achieve Go arrest. Progression to G1/S was brought about by stimulation with 10% FBS and 50 ng/mL PDGF for 24 hours. Cells and reagents for primary human aortic VSMC culture were purchased from Cascade Biologics. Human VSMC(C-007-5C) were grown in Medium 231 with Smooth Muscle Growth Supplement (SMGS) S-007-25 and 1% penicillin-streptomycin (GIBCO/BRL). Cyclin E1/E2 double knockout mouse embryonic fibroblasts (MEF) were kindly provided by Dr. P. Sicinski (Harvard Medical School), and maintained in DMEM with 10% FBS (Hyclone) and 1% penicillin-streptomycin (GIBCO/BRL). Go arrest of MEF was achieved by starvation for 48 h in medium lacking FBS. Mouse embryonic fibroblasts (MEF) were maintained for normal culture in 10% FBS-supplemented DMEM. For the starvation of MEF, cells were cultured in starvation medium without FBS for 48 hours to achieve Go arrest. HeLa (human cervical cancer cell), Saos-2 (human osteosarcoma cell) and A549 (human lung cancer cell) were cultured in 10% FBS-supplemented DMEM.
(§2) MTT colorimetric survival assay. Active mitochondria of living cells can cleave MTT to produce formazan, the amount of which is directly proportional to the number of living cells. Cell survival was assessed (Denizot, 1986). Cells in 96-well plate were washed two times with PBS followed by 4 hr of incubation at 37° C. with 1 mg/ml of MTT (in phenol red free DMEM supplemented with 2 mM of L-glutamine & 1 mM of sodium pyruvate) in a reaction volume of 100 μl. After removing MTT solution, DMSO was added to dissolve formazan crystals. Plate was shaken for 5 min at 55° C. for complete dissolve. Dye absorbance in viable cells was measured at 570 nm with 630 nm as a reference wavelength. All experiments were repeated at least 3 times, and each experimental condition was repeated in at least quadruplicate wells in each experiment.

[2] = test system: HeLa (human cervical cancer cell); assay: MTT proliferation assay, HeLa; type: cell-based; conditions: 100 μM, MTT after 2 days
Method: as §1, §2

Cyclin E1/E2 KO MEF = assay: 3H-thymidine incorporation assay, Cyclin E1/E2 KO MEF; type: cell-based, mouse; conditions: 10 and 100 μM for 1.0 h, 48 h after treatment; listed as TAT-CBS
Method: (§3) Cell culture conditions The isolation and culture of primary mouse aortic VSMC have was performed according to methods previously described (Afroze T, Yang L L, Wang C, Gros R, Kalair W, Hogue A N, Mungrue I N, Zhu Z, Husain M. Calcineurin-independent regulation of plasma membrane Ca2+ ATPase-4 in the vascular smooth muscle cell cycle. Am J Physiol Cell Physiol. July 2003; 285(1):C88-95). VSMCs were grown in DMEM (GIBCO/BRL, Gaithersburg, Md.) supplemented with 10% FBS (Hyclone, Logan, Utah), 50 ng/mL platelet-derived growth factor (PDGF, Sigma) and 1% penicillin-streptomycin (GIBCO/BRL). For serum starvation, cells were grown to 60% to 70% confluence, washed twice with PBS, and cultured in starvation medium (0.25% FBS-supplemented DMEM) for 72 hours to achieve Go arrest. Progression to G1/S was brought about by stimulation with 10% FBS and 50 ng/mL PDGF for 24 hours. Cells and reagents for primary human aortic VSMC culture were purchased from Cascade Biologics. […]
(§4) ^3H-thymidine incorporation proliferation assay. […] Cells were grown at 37° C. and analyzed at 24, 48 and 72 h after ^3H-thymidine exposure. […] Solubilized contents of wells were removed and added to 2.5 ml of scintillation fluid (ReadySafe™ Cocktail, Beckman Coulter, Product No. 141349). Radioactivity was measured in a scintillation counter (Beckman Coulter, LS 6500).

[3] = test system: Saos-2 (human osteosarcoma); assay: MTT proliferation assay, Saos-2; type: cell-based; conditions: 100 μM, MTT after 2 days
Method: as §1, §2

[4] = test system: primary human aortic VSMC; assay: 3H-thymidine incorporation assay, human aortic VSMC; type: cell-based; conditions: 10 and 100 μM for 1.0 h, 72 h after treatment; listed as TAT-CBS
Method: as §3, §4

primary mouse aortic SMC = type: cell-based
Method: as §1, §2
Nucleofection. For peptides delivery via Nucleofector technology, 1×10^6 cells were harvested, resuspended in 100 μl of Nucleofector solution (for VSMC: Cat. No. VPI-1004; for MEF: Cat. No.: VPD-1005, both provided by Amaxa GmBH, Köln, Germany) and mixed with 100 nmole (in 10 μl) of each peptide. The cell solution was transferred into a kit-provided cuvette and positioned into a Nucleofector device. Subsequently, the transfection was performed with a single pulse using the preprogrammed nucleofection program (A-33 for VSMC; T-20 for MEF) according to the manufacturer's recommendation. Following nucleofection, the cells were transferred into 96-well plate (2K or 5K cells per well for MTT assay) or T25 culture flasks (for FACS analysis) containing pre-warmed stem cell medium using kit-provided plastic pipettes to prevent cell damage and the cells were cultured at 37° C. in 5% CO2.

MEF = assay: 3H-thymidine incorporation assay, MEF; type: cell-based, mouse; conditions: 10 and 100 μM for 1.0 h, 48 h after treatment; listed as TAT-CBS
Method: as §3, §4

[5] = test system: cyclins E1/E2 double knockout MEF; assay: Cell cycle analysis, cyclin E1/E2 double knockout MEF; type: cell-based, mouse; conditions: starved cells, serum stimulation 10% FBS, 24 hr (peptide) or 20 hr (CMZ)
Method: as §3, with “Biologics. Human VSMC(C-007-5C) were grown in Medium 231 with Smooth Muscle Growth Supplement (SMGS) S-007-25 and 1% penicillin-streptomycin (GIBCO/BRL).” for “Biologics.”
Flow cytometric analysis. […] Cells were counted in a flow cytometer (FACScan, BD Biosciences), and G0/G1, S, and G2/M cell percentages were calculated with Cell Quest software (BD Biosciences).

| Molecule | proliferation of A549 cells (MTT) [1] | proliferation of HeLa cells (MTT) [2] | 3H-thymidine incorporation (S-phase entry), Cyclin E1/E2 KO MEF (Cyclin E1/E2 KO MEF) | proliferation of Saos-2 cells (MTT) [3] | 3H-thymidine incorporation (S-phase entry), human aortic VSMC [4] | IC50 (primary mouse aortic SMC) | maximum level of inhibition of VSMC proliferation (primary mouse aortic SMC) | 3H-thymidine incorporation (S-phase entry), MEF (MEF) | cell cycle progression into S phase, cyclins E1/E2 double knockout MEF [5] |
| --- | --- | --- | --- | --- | --- | --- | --- | --- | --- |
| RRRQRRKKRGGGAEFSARSRKRKANVTVFLQD [TAT-SEQ ID NO:2] | inhibited | inhibited | not and not able to produce an anti-proliferative effect | inhibited | dose-dependent inhibitory effect; also recorded: inhibited; also recorded: dose-dependent, anti-proliferative effect | 8.89 ± 1.24 µM | 70% | observed; also recorded: dose-dependent, anti-proliferative effect |  |
| Clc1ccc(C(c2ccc(Cl)cc2)n2cc[n+](CC(OCc3ccc(Cl)cc3Cl)c3ccc(Cl)cc3Cl)c2)cc1 (stereo not drawn) [calmidazolium] |  |  |  |  |  |  |  |  | did inhibit |

From patent US20110105382A1, “CALMODULIN-BINDING PEPTIDES THAT REDUCE CELL PROLIFERATION IN CANCER AND SMOOTH MUSCLE PROLIFERATION DISEASES” (priority 2007, published 2011)
